Test results from patent EP0973746B1, “SUBSTITUTED 3-CYANO QUINOLINES” (Wyeth Holdings Corporation, priority 1997, dated 1998).
≈ marks a conversion by molar mass, not a printed value. Where “and” joins values, the source holds several entries; their conditions need not be identical. Equal values may be shown once. Read-outs that look alike come from different tables or passages of the source.

Legend:
SKBR3 = assay: Inhibition of cancer cell growth as measured by cell number, SKBR3; format: cell-based, human; details: for IC50: Homo sapiens, Table 8;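 for all read-outs here: SK-BR-3 cells were selected as a line overexpressing HER2/neu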
Source text: (§1) The cell lines were chosen since they overexpressed epidermal growth factor receptor (EGFR) (i.e. A431) or HER2/neu (SKBR3), or had little to no expression of the these receptors (SW620, LOX, MCF7).

A431 = assay: Inhibition of cancer cell growth as measured by cell number, A431; format: cell-based, human; details: for IC50: Homo sapiens, A-431, 48 h;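 for all read-outs here: human A431 line, picked because it overexpresses epidermal growth factor receptor (EGFR)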
Source text: as §1

MCF7 = assay: Inhibition of cancer cell growth as measured by cell number, MCF7; format: cell-based, human; details: Table 8; for IC50: Homo sapiens, MCF7, 48 h;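 for all read-outs here: MCF7 was included as a line with little or no EGFR or HER2/neu expression, in contrast to the receptor-overexpressing lines of the panel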
Source text: as §1

SW620 = assay: Inhibition of cancer cell growth as measured by cell number, SW620; format: cell-based, human; details: for IC50: Homo sapiens, SW-620, 48 h;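 for all read-outs here: SW620 was included as a cell line with little or no EGFR or HER2/neu expression, in contrast to receptor-overexpressing lines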
Source text: as §1

LOX = assay: Inhibition of cancer cell growth as measured by cell number, LOX; format: cell-based, human; details: Table 8; for IC50: Homo sapiens, LOX, 48 h;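 for all read-outs here: LOX cells served as a line with low or absent EGFR and HER2/neu expression, in contrast to receptor-overexpressing lines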
Source text: as §1

[1] = molecular target: recombinant human MEK 1 (MAPKK) and recombinant human ERK2 (MAPK); assay: Mitogen Activated Protein Kinase (MAPK) assay, two component coupled MEK 1 / ERK2; format: biochemical; details: separate entries for the same compound = evaluated more than one time;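 note: MEK 1-activated ERK2 phosphorylates MBP or Myc peptide with 33P-ATP, filter capture and scintillation counting, inhibitor preincubated with ERK2 30 min at 0 °C, inhibition relative to uninhibited control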
[2] = molecular target: T1, His-tagged cytoplasmic domain of EGFR (Homo sapiens, UniProt P00533); assay: Inhibition of Epidermal Growth Factor Receptor Kinase (EGF-R) using recombinant enzyme; format: biochemical; details: recombinant enzyme; RR-SRC peptide; average of the number of tests; read-out: IC50;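 note: radiometric kinase assay measuring radiolabeled phosphate transfer from ATP onto the peptide tyrosine by scintillation counting, control is reaction without compound, background subtracted, IC50 from dose-response curve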
T1 construct: containing the EGFR cDNA encoding amino acids 645 - 1186 preceded by Met-Ala-(His)6; made in house; host or cells: Sf9 cells, recombinant baculovirus vHcEGFR52
Procedure: The enzyme used in this assay is the His-tagged cytoplasmic domain of EGFR.
Compounds to be evaluated were made into 10 mg/mL stock solutions in 100% dimethylsulfoxide (DMSO). Prior to experiment, stock solutions were diluted to 500 µM with 100% DMSO and then serially diluted to the desired concentration with HEPES buffer (30 mM HEPES pH 7.4).
For the enzyme reaction, 10 µL of each inhibitor (at various concentrations) were added to each well of a 96-well plate. […] This was allowed to sit for 10 min on ice and was followed by the addition of 5 µl peptide (80 µM final conc.), 10µl of 4X Buffer (Table A), 0.25 µL ^33P-ATP and 12 µL H2O. The reaction was allowed to run for 90 min at room temperature and was followed by spotting the entire volume on to precut P81 filter papers. The filter discs were washed 2X with 0.5% phosphoric acid and radioactivity was measured using a liquid scintillation counter.
The % inhibition of the test compound was determined for at least three different concentrations and the IC50 value was evaluated from the dose response curve. […] CPM(control) is in units of counts per minute and was a number expressing the amount of radiolabeled ATP (g-33P) incorporated into the RR-SRC peptide substrate by the enzyme after 90 minutes at room temperature in the absence of test compound as measured by liquid scintillation counting. The CPM values were corrected for the background counts produced by ATP in the absence of the enzymatic reaction. The IC50 values reported in TABLE 2 are averages of the number of tests conducted.

[3] = SK-BR-3, 48 h, read-out: IC50 SKBR3, cell number, Sulforhodamine B, 48 hours exposure
[4] = read-out: IC50 A431, cell number, Sulforhodamine B, 48 hours exposure, Table 8
[5] = read-out: IC50 MCF7, cell number, Sulforhodamine B, 48 hours exposure
[6] = read-out: IC50 SW620, cell number, Sulforhodamine B, 48 hours exposure, Table 8
[7] = read-out: IC50 LOX, cell number, Sulforhodamine B, 48 hours exposure
[8] = SK-BR-3, cell number, Sulforhodamine B, 48 hours exposure, read-out: IC50 SKBR3
[9] = cell number, Sulforhodamine B, 48 hours exposure, Table 8, read-out: IC50 A431
[10] = cell number, Sulforhodamine B, 48 hours exposure, read-out: IC50 MCF7
[11] = cell number, Sulforhodamine B, 48 hours exposure, Table 8, read-out: IC50 SW620
[12] = cell number, Sulforhodamine B, 48 hours exposure, read-out: IC50 LOX
[13] = cell number, Sulforhodamine B, 48 hours exposure

T1 sequence (P00533 669-1210): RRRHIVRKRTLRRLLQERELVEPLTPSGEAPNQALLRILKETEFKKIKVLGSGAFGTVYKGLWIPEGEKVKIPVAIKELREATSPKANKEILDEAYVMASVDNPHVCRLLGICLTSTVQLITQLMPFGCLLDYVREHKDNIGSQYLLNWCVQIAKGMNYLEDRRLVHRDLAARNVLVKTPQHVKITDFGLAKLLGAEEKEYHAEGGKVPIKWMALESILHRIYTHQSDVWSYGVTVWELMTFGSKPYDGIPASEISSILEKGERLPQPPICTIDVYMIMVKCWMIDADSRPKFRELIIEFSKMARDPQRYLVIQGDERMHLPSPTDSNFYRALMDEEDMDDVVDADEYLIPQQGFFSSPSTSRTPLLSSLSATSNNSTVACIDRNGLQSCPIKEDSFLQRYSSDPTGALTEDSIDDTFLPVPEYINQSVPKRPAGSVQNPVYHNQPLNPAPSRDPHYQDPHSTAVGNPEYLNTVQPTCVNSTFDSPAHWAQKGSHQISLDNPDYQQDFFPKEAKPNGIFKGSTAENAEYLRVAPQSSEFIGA

Structure (SMILES) | IC50 (SKBR3; [3]) [µg/mL] | IC50 (A431; [4]) [µg/mL] | IC50 (MCF7; [5]) [µg/mL] | IC50 (SW620; [6]) [µg/mL] | IC50 (LOX; [7]) [µg/mL] | IC50 [1] | further results
CCOc1cc2ncc(C#N)c(Nc3ccc(Sc4ccccc4)c(Cl)c3)c2cc1OCC [Example 254, 4-[3-Chloro-4-(phenylthio)phenylamino]-6,7-diethoxy-3-quinolinecarbonitrile] | 0.01 (≈ 0.021 µM) | 0.07 (≈ 0.147 µM) | 0.07 (≈ 0.147 µM) | 0.03 (≈ 0.063 µM) | 0.07 (≈ 0.147 µM) | – | –
CN(C)Cc1cc(N)cc2c(Nc3cccc(Br)c3)c(C#N)cnc12 [Example 109, 6-Amino-4-[(3-bromophenyl)amino]-8-dimethylaminomethyl-3-quinolinecarbonitrile] | 30.7 (≈ 77.4 µM) | 38.9 (≈ 98 µM) | 37.9 (≈ 95.7 µM) | 40.8 (≈ 103 µM) | 35.1 (≈ 88.5 µM) | – | –
COCCOc1cc2ncc(C#N)c(Nc3cccc(Br)c3)c2cc1OCCOC [Example 311, 4-[(3-Bromophenyl)amino]-6,7-bis(2-methoxyethoxy)-3-quinolinecarbonitrile] | 0.7 (≈ 1.48 µM) | – | – | 1 (≈ 2.12 µM) | 2.8 (≈ 5.93 µM) | 2 µM and 2.5 µM | –
C=CC(=O)Nc1ccc2ncc(C#N)c(Nc3cccc(N(C)C)c3)c2c1 [Example 391, N-[3-Cyano-4-(3-dimethylaminophenylamino)quinolin-6-yl]acrylamide] | – | – | – | – | – | > 100 µM | IC50 (SKBR3; [8]): 0.4 µg/mL (≈ 1.12 µM); IC50 (A431; [9]): 0.34 µg/mL (≈ 0.951 µM); IC50 (MCF7; [10]): 6.53 µg/mL (≈ 18.3 µM); IC50 (SW620; [11]): 5.23 µg/mL (≈ 14.6 µM); IC50 (LOX; [12]): 0.1 µg/mL (≈ 0.28 µM)
CCOc1cc2ncc(C#N)c(Nc3ccc(F)cc3)c2cc1OCC [Example 260, 4-(4-fluorophenylamino)-6,7-diethoxy-3-quinolinecarbonitrile] | 0.08 (≈ 0.228 µM) | 0.06 (≈ 0.171 µM) | 9.98 (≈ 28.4 µM) | 0.32 (≈ 0.911 µM) | 0.26 (≈ 0.74 µM) | 55 µM | –
N#Cc1cnc2ccc(N)cc2c1Nc1ccc(F)c(F)c1 [Example 155, 6-Amino-4-[(3.4-difluorophenyl)amino]-3-quinolinecarbonitrile] | 3.28 (≈ 11.1 µM) | 4.3 (≈ 14.5 µM) | 7.49 (≈ 25.3 µM) | 7.55 (≈ 25.5 µM) | 6.08 (≈ 20.5 µM) | – | –
CCOc1cc2ncc(C#N)c(N(C)c3ccccc3)c2cc1OCC [Example 258, 4-(N-Methylphenylamino)-6,7-diethoxy-3-quinolinecarbonitrile] | – | 4.67 (≈ 13.4 µM) | 7.87 (≈ 22.7 µM) | – | 6.12 (≈ 17.6 µM) | – | IC50 A431 (A431; cell number, Sulforhodamine B, 48 hours exposure, Table 8): 5.42 µg/mL (≈ 15.6 µM); IC50 MCF7 (MCF7; [13]): 9.69 µg/mL (≈ 27.9 µM); IC50 LOX (LOX; [13]): 10.72 µg/mL (≈ 30.9 µM)
COCC=CC(=O)Nc1ccc2ncc(C#N)c(Nc3cccc(Br)c3)c2c1 [Example 65, 4-Methoxy-but-2-enoic acid [4-(3-bromo-phenylamino)-3-cyano-quinolin-6-yl]-amide] | 60 (≈ 137 µM) | 48 (≈ 110 µM) | 84 (≈ 192 µM) | > 100 | 84 (≈ 192 µM) | 40 µM | –
COCC#CC(=O)Nc1ccc2ncc(C#N)c(Nc3ccc(F)c(Cl)c3)c2c1 [Example 194, N-[4-[-(3-Chloro-4-fluorophenyl)amino]-3-cyano-6-quinolinyl]-4-methoxy-2-butynamide] | 0.2 (≈ 0.489 µM) | 0.1 (≈ 0.245 µM) | – | 0.2 (≈ 0.489 µM) | – | > 100 µM | IC50 [2]: 0.0017 µM
CCCN(CC#CC(=O)Nc1ccc2ncc(C#N)c(Nc3cccc(Br)c3)c2c1)CCC [Example 170] | – | – | – | – | – | > 100 µM | IC50 SKBR3 (SKBR3): 0.03 µg/mL (≈ 0.0595 µM); IC50 A431 (A431): 0.03 µg/mL (≈ 0.0595 µM); IC50 SW620 (SW620): 0.1 µg/mL (≈ 0.198 µM); IC50 [2]: 0.06 µM
CC#CC(=O)Nc1ccc2ncc(C#N)c(Nc3cccc(N(C)C)c3)c2c1 [Example 393, But-2-ynoic Acid [3-Cyano-4-(3-dimethylaminophenylamino)quinolin-6-yl]amide] | – | – | – | – | – | 40 µM | IC50 (SKBR3; [8]): 0.84 µg/mL (≈ 2.27 µM); IC50 (A431; [9]): 0.45 µg/mL (≈ 1.22 µM); IC50 (MCF7; [10]): 4 µg/mL (≈ 10.8 µM); IC50 (SW620; [11]): 2.25 µg/mL (≈ 6.09 µM); IC50 (LOX; [12]): 0.85 µg/mL (≈ 2.3 µM)
COc1cc2ncc(C#N)c(Nc3cccc(F)c3)c2cc1OC [Example 35, 4-[(3-Fluorophenyl)amino]-6,7-dimethoxy-3-quinolinecarbonitrile] | 0.93 (≈ 2.88 µM) | – | 40.9 (≈ 126 µM) | 6.4 (≈ 19.8 µM) | – | – | IC50 (SW620; read-out: IC50 SW620, cell number, Sulforhodamine B, 48 hours exposure, Table 4): 9.57 µg/mL (≈ 29.6 µM)
CCOc1cc2ncc(C#N)c(Nc3cccc(F)c3)c2cc1OCC [Example 263, 4-(3-Fluorophenylamino)-6,7-diethoxy-3-quinolinecarbonitrile] | – | – | – | – | – | 80 µM | IC50 (SKBR3; [8]): 7.5 µg/mL (≈ 21.3 µM); IC50 (A431; [9]): 6.9 µg/mL (≈ 19.6 µM); IC50 (MCF7; [10]): 8.44 µg/mL (≈ 24 µM); IC50 (SW620; [11]): 5.79 µg/mL (≈ 16.5 µM); IC50 (LOX; [12]): 5.66 µg/mL (≈ 16.1 µM)
